Patent US20090068719A1, “IMMUNOASSAYS, HAPTENS, IMMUNOGENS AND ANTIBODIES FOR ANTI-HIV THERAPEUTICS” (priority 2003, published 2009)

Columns and labels:
[1] = human, in vivo; cited from earlier work
HIV = details: cited from earlier work
Anti-(D2)2 [2] = assay: Specificity of the lopinavir immunoassay (cross-reactivity); type: binding, rabbit; details: crossreactant 10 μg/mL + 5 μg/mL Lopinavir in human serum
Experimental: An immunoassay for lopinavir was conducted on the Cobas Mira Chemistry Analyzer (Roche). […] The specificity of the immunoassay was evaluated by adding potentially crossreactant drugs to human serum and determining the increase in the apparent concentration as a result of the presence of crossreactant. […] Each sample was assayed in duplicate. Testing was performed on the Cobas Mira analyzer. The percentage concentration above 5 μg/mL of lopinavir was calculated for each crossreactant.

Anti-(D2)2 [3] = assay: Homogeneous enzyme immunoassay for lopinavir, standard curve; type: binding, rabbit; details: Enzyme Conjugate (D2)/G6PDH Reagent
Source text: Enzyme Conjugate (D2)/G6PDH and Antibody Anti-(D2)2 were selected as exemplary materials for the development of a homogeneous enzyme immunoassay for the anti-HIV therapeutic lopinavir. Enzyme Conjugate (D2)/G6PDH Reagent, as described in Example 45, was used. Also antibody Anti-(D2)2 was used in this Example as part of an antibody reagent (“Anti-(D2)2 Antibody Reagent”) further comprising nicotinamide adenine dinucleotide, glucose-6-phosphate, sodium chloride, bulking agent, surfactant, and preservatives.
An immunoassay for lopinavir was conducted on the Cobas Mira Chemistry Analyzer (Roche). On the analyzer, 4 μL of sample plus 61 μL water were incubated for 300 sec with 150 μL of Anti-(D2)2 Antibody Reagent. Subsequently, 75 μL of the Enzyme Conjugate (D2)/G6PDH Reagent was added. After 25 sec incubation, enzyme activity was monitored by following the production of NADH spectrophotometrically at 340 nm for 50 sec.
A series of known concentrations of lopinavir standards (ranging from 0 to 10 μg/mL) were prepared gravimetrically in MES (2-(N-Morpholino)ethanesulfonic acid, 0.01 M, pH 5.5) formulated with EDTA, protein additive, detergent, antiform agent, and preservative. Similarly, quality control samples were prepared (1.0 and 5.0 μg/mL).
Lopinavir was dissolved in methanol to give a stock solution of 1000 μg/mL. Synthetic buffered calibrator matrix 10 mL aliquots were spiked to give lopinavir standards with concentrations shown in Table 4. A series of Anti-(D2)2 Antibody Reagents were prepared by adding antibody to antibody/substrate diluent. Each antibody/substrate reagent was assayed with Enzyme Conjugate (D2)/G6PDH Reagent. Calibration curves were generated on the Cobas Mira by assaying each level in duplicate.

[4] = human; cited from earlier work
[5] = rats or dogs; cited from earlier work
[6] = rat, dog, and human primary hepatocytes; cited from earlier work

Compound	Metabolite identified in urine [1] [%]	Percent Increase in Apparent Lopinavir Conc. above 5 μg/mL (Anti-(D2)2 [2]) [%]	other results
Cc1cc(OC2OC(C(=O)O)C(O)C(O)C2O)nc2c1NC(=O)c1cccnc1N2C1CC1 (stereo not shown) [2-hydroxynevirapine glucuronide]	18.6	–	–
Cc1c(OC2OC(C(=O)O)C(O)C(O)C2O)cnc2c1NC(=O)c1cccnc1N2C1CC1 (stereo not shown) [3-hydroxynevirapine glucuronide]	25.7	–	–
Cc1c(O)cnc2c1NC(=O)c1cccnc1N2C1CC1 [3-hydroxynevirapine]	1.2	–	–
COc1c(O)ccc(C(=O)N[C@@H](CSc2ccccc2)[C@H](O)CN2C[C@H]3CCCC[C@H]3C[C@H]2C(=O)NC(C)(C)C)c1C [3′-methoxy-4′-hydroxynelfinavir]	–	–	EC50 relative to nelfinavir (HIV): fivefold higher
O=C1Nc2c(C(=O)O)ccnc2N(C2CC2)c2ncccc21 [4-carboxy-nevirapine]	2.4	–	–
Cc1ccnc2c1NC(=O)c1cc(OC3OC(C(=O)O)C(O)C(O)C3O)cnc1N2C1CC1 (stereo not shown) [8-hydroxynevirapine glucuronide]	1.3	–	–
O=C1Nc2c(COC3OC(C(=O)O)C(O)C(O)C3O)ccnc2N(C2CC2)c2ncccc21 (stereo not shown) [12-hydroxynevirapine glucuronide]	23.7	–	–
O=C1Nc2c(CO)ccnc2N(C2CC2)c2ncccc21 [12-hydroxynevirapine]	0.6	–	–
CC(C)CN(C[C@@H](O)[C@H](Cc1ccccc1)NC(=O)O[C@H]1CCOC1)S(=O)(=O)c1ccc(N)cc1 [Amprenavir, amprenavir]	–	1	–
O=C1Nc2ccc(Cl)cc2[C@@](C#CC2CC2)(C(F)(F)F)O1 [Efavirenz, efavirenz]	–	0	–
CC(C)(C)NC(=O)[C@@H]1CN(Cc2cccnc2)CCN1C[C@@H](O)C[C@@H](Cc1ccccc1)C(=O)N[C@H]1c2ccccc2C[C@H]1O [Indinavir, indinavir]	–	0	–
Cc1cccc(C)c1OCC(=O)N[C@@H](Cc1ccccc1)[C@@H](O)C[C@H](Cc1ccccc1)NC(=O)[C@H](C(C)C)N1CCCNC1=O [Lopinavir, lopinavir]	–	–	Reaction Rate (Anti-(D2)2 [3]; Lopinavir 0.5 μg/mL): 311.1 mA/min; Reaction Rate (Anti-(D2)2 [3]; Lopinavir 1.0 μg/mL): 338.9 mA/min; Reaction Rate (Anti-(D2)2 [3]; Lopinavir 2.5 μg/mL): 390.7 mA/min; Reaction Rate (Anti-(D2)2 [3]; Lopinavir 5.0 μg/mL): 427.0 mA/min; Reaction Rate (Anti-(D2)2 [3]; Lopinavir 10.0 μg/mL): 457.1 mA/min; Metabolism by liver microsomes [4]: metabolized very extensively and rapidly
Cc1c(O)cccc1C(=O)N[C@@H](CSc1ccccc1)[C@H](O)CN1C[C@H]2CCCC[C@H]2C[C@H]1C(=O)NC(C)(C)C [Nelfinavir, nelfinavir]	–	1	–
CC(C)c1nc(CN(C)C(=O)N[C@H](C(=O)N[C@@H](Cc2ccccc2)C[C@H](O)[C@H](Cc2ccccc2)NC(=O)OCc2cncs2)C(C)C)cs1 [Ritonavir, ritonavir]	–	0	–
CC(C)(C)NC(=O)[C@@H]1C[C@@H]2CCCC[C@@H]2CN1C[C@@H](O)[C@H](Cc1ccccc1)NC(=O)[C@H](CC(N)=O)NC(=O)c1ccc2ccccc2n1 [Saquinavir, saquinavir]	–	1	–
Cc1ccnc2c1NC(=O)c1cccnc1N2C1CC1 [nevirapine]	–	–	Fraction of the dose excreted in urine as parent compound [1]: 2.7%; Mean plasma elimination half-life, NVP [1]: 20.0 h; Parent compound share of circulating radioactivity [1]: 75%
CCC[C@@]1(CCc2ccccc2)CC(O)=C([C@H](CC)c2cccc(NS(=O)(=O)c3ccc(C(F)(F)F)cn3)c2)C(=O)O1 [tipranavir]	–	–	Plasma metabolic profile [5]: only the parent drug; Metabolic stability in hepatocyte incubations [6]: stable
